Data published in patent US12454541B2, “Reagent for measuring oxygen concentration in cell and tissue” (NATIONAL UNIVERSITY CORPORATION GUNMA UNIVERSITY, priority 2019, dated 2025).

How the values were obtained:
[1] = tested on: HeLa cells; test: Phosphorescence imaging and microplate-reader phosphorescence intensity of HeLa cells with added iridium complex; assay type: cell-based; conditions: for phosphorescence intensity in imaging under oxygen partial pressure of 2.5% (intracellular oxygen responsiveness): HeLa cells, 500 nM, 2 hours culture, 2.5% vs 21% oxygen; for phosphorescence intensity in HeLa cells (comparison between complexes): final concentration 500 nM, 2 hours of culture, imaging and microplate reader
Protocol: Luminescence micrograph: inverted research microscope, IX-71; manufactured by Olympus Corporation
(§1) Luminescence intensity, luminescence lifetime: microplate reader, Infinite 200 PRO; manufactured by TECAN.
Using the iridium complexes developed, imaging experiments for living cells were carried out. […] For quantitative evaluation, the phosphorescence intensity was measured using a microplate reader (FIG. 4).
For C6-BEDA and C545T-BEDA, intracellular oxygen responsiveness was evaluated. […] Further, as a result of measurement of the phosphorescence intensity using a microplate reader, it was shown that the phosphorescence intensity increases 3-fold or more under an oxygen partial pressure of 2.5% (FIG. 4).

[2] = Photophysical properties of iridium complexes in a solution (absorption, phosphorescence spectrum, quantum yield, lifetime); assay type: physicochemical; conditions: for maximum absorption wavelength λabs / maximum emission (phosphorescence) wavelength λphos / molecular extinction coefficient ε: in acetonitrile at room temperature; for molecular extinction coefficient ε: at λabs; for phosphorescence lifetime τp / phosphorescence quantum yield Φp: in acetonitrile, under deoxidized conditions
Source text: Photophysical properties of the phosphorescence of the compound represented by General Formula (I) or (II), such as the maximum absorption/phosphorescence wavelength, the phosphorescence quantum yield (Φp), and the phosphorescence lifetime (τp), can be measured by known measurement methods. For example, the maximum absorption/phosphorescence wavelength can be measured using a spectrophotometer or the like, and the phosphorescence quantum yield can be measured using a luminescence quantum yield measurement apparatus or the like, for a sample in which the compound represented by General Formula (I) or (II) is dissolved in a solvent or the like. Regarding the phosphorescence lifetime, the […] (τp) of the compound in each solvent can be measured using a phosphorescence lifetime measurement apparatus.
Absorption spectrum: ultraviolet and visible spectrophotometer, Ubest-550; manufactured by JASCO Corporation
Phosphorescence spectrum: multichannel spectroscope, PMA-12; manufactured by Hamamatsu Photonics K. K.
Phosphorescence quantum yield: luminescence quantum yield measurement apparatus, C9920-01; manufactured by Hamamatsu Photonics K. K.
Phosphorescence lifetime: compact fluorescence lifetime measurement apparatus, Quantaurus-Tau; manufactured by Hamamatsu Photonics K.K.
The maximum absorption wavelength (λabs) was found at 473 to 499 nm, and the molecular extinction coefficient (ε/dm^3 mol^−1 cm^−1) was not less than 70,000 dm^3 mol^−1 cm^−1. The maximum emission wavelength (λphos) was found at 577 to 622 nm. […] Therefore, the observed luminescence can be identified as a phosphorescence. […] These are higher quantum yields compared to those of the iridium complexes that have been reported so far.

[3] = tested on: HT-29 cells; test: Tracing of intracellular oxygen by phosphorescence lifetime of C6-BEDA in HT-29 cells using a plate reader; assay type: cell-based; conditions: for change of phosphorescence lifetime of C6-BEDA in cells after additive: C6-BEDA 500 nM, plate sealed with oil, excitation 480 nm, measurement 600 nm; for change of phosphorescence lifetime of C6-BEDA in cells after additive / change of intracellular oxygen partial pressure after additive: antimycin A 10 μM or FCCP 1 μM; for change of intracellular oxygen partial pressure after additive: converted from C6-BEDA phosphorescence lifetime with calibration curve
Protocol: as §1
Using a luminescence lifetime measurement mode of a commercially available plate reader, changes in the oxygen concentration in cells were traced. In a 96-well plate, HT-29 cells were plated at 50,000 cells/well, and cultured for 48 hours. Thereafter, C6-BEDA was added thereto to a final concentration of 500 nM, and culture was carried out for 2 hours. […] After sealing the plate with oil, the phosphorescence lifetime was measured using a plate reader (excitation wavelength, 480 nm; measurement wavelength, 600 nm; FIG. 6). The phosphorescence lifetime (τp/μs) was calculated using the following equation. τp=30/ln(W1/W2)
Here, W1 and W2 are the integrated values of the phosphorescence intensity obtained during the periods of 10 to 30 μs and 40 to 60 μs after the pulse excitation. In the cells to which no additive was added, the phosphorescence lifetime increased with time. […] This is due to the fact that intracellular oxygen consumption was stopped by the respiration inhibitory action of antimycin A, while intracellular oxygen consumption increased by the respiration-promoting action of FCCP. In order to convert the measured phosphorescence lifetime to the oxygen partial pressure, preparation of a calibration curve is necessary. Here, the calibration curve was prepared by measuring the phosphorescence lifetime at different oxygen partial pressures in the plate reader (pO2=1521.03225 exp(−τp/[…])) (FIG. 7).

[4] = tested on: liver of a mouse; test: Phosphorescence lifetime imaging (PLIM) of liver of mouse after tail vein administration; assay type: in vivo; conditions: mouse under anesthesia, 250 nmol, excitation 488 nm
Protocol: Subsequently, the in vivo dynamics was evaluated. In the present experiment, a microscope capable of acquiring a phosphorescence lifetime image as well as a phosphorescence intensity image (PLIM: phosphorescence lifetime imaging microscope) was used. To the tail vein of a mouse under anesthesia, 250 μL of a solution of C6-MEDA or C6-BEDA (physiological saline:DMSO=9:1, v/v, 250 nmol) was administered to carry out a phosphorescence intensity imaging experiment and a phosphorescence lifetime imaging experiment (excitation wavelength, 488 nm; monitoring wavelength, 510 to 560 nm). […] The liver is composed of functional units called hepatic lobules. Arteries and portal veins are present in the periphery of hepatic lobules, and veins are present in the center. It has thus been pointed out that there is a gradient of the oxygen partial pressure from the periphery to the center. […] It can be seen that the area with a short lifetime (which is blue in the color image) corresponds to the periphery of hepatic lobules, and that the area with a long lifetime (which is orange in the color image) corresponds to the area near the central vein.

[5] = tested on: kidney of a mouse; test: Phosphorescence intensity and lifetime imaging (PLIM) of kidney of mouse after tail vein administration; assay type: in vivo; conditions: mouse under anesthesia, 250 nmol, excitation 488 nm

maximum absorption wavelength λabs [2] | maximum emission (phosphorescence) wavelength λphos [2] | molecular extinction coefficient ε [2] | phosphorescence lifetime τp [2] | phosphorescence quantum yield Φp [2] | Compound | phosphorescence intensity in imaging under oxygen partial pressure of 2.5% (intracellular oxygen responsiveness) [1] | phosphorescence intensity in HeLa cells (comparison between complexes) [1] | change of phosphorescence lifetime of C6-BEDA in cells after additive [3] | change of intracellular oxygen partial pressure after additive [3] | phosphorescence lifetime imaging of liver [4] | suitability as probe for intracellular oxygen concentration ([3]; 500 nM, plate reader) | imaging of kidney [5]
 |  |  |  |  | N#CC(C#N)=NNc1ccc(OC(F)(F)F)cc1 [FCCP] |  |  | remarkably increased | rapid decrease in the oxygen partial pressure |  |  | 
482 nm | 594 nm | 106,000 dm^3mol^−1cm^−1 | 34.8 μs | 0.65 | Bis[3-(benzo[d]thiazol-2-yl)-7-(diethylamino)-2H-chromen-2-one-κN, κC^4]N^1,N^2-dibutylethane-1,2-diamine iridium(III) hexafluorophosphate [C6-BEDA] | remarkable increases in the phosphorescence intensity | exhibit higher phosphorescence intensities |  |  | the presence of the gradient of the phosphorescence lifetime can be seen | capable of real-time tracing of changes in the intracellular oxygen concentration | 
481 nm | 593 nm | 103,000 dm^3mol^−1cm^−1 | 38.7 μs | 0.75 | Bis[3-(benzo[d]thiazol-2-yl)-7-(diethylamino)-2H-chromen-2-one-κN, κC^4]N^1,N^2-dimethylethane-1,2-diamine iridium(III) hexafluorophosphate [C6-MEDA] |  |  |  |  |  |  | Renal tubular cells could be clearly imaged
473 nm | 577 nm | 91,700 dm^3mol^−1cm^−1 | 38.9 μs | 0.82 | Bis[3-(benzo[d]thiazol-2-yl)-7-(diethylamino)-2H-chromen-2-one-κN, κC^4]ethane-1,2-diamine iridium(III) hexafluorophosphate [C6-EDA] |  |  |  |  |  |  | 
 |  |  |  |  | antimycin A |  |  | hardly changed | slight increase in the oxygen partial pressure |  |  | 

Compound | maximum absorption wavelength λabs [2] | maximum emission (phosphorescence) wavelength λphos [2] | molecular extinction coefficient ε [2] | phosphorescence lifetime τp [2] | phosphorescence quantum yield Φp [2] | phosphorescence intensity in imaging under oxygen partial pressure of 2.5% (intracellular oxygen responsiveness) [1] | phosphorescence intensity in HeLa cells (comparison between complexes) [1] | change of phosphorescence lifetime of C6-BEDA in cells after additive [3] | change of intracellular oxygen partial pressure after additive [3] | phosphorescence lifetime imaging of liver [4] | suitability as probe for intracellular oxygen concentration ([3]; 500 nM, plate reader) | imaging of kidney [5]
CC1(C)CCN2CCC(C)(C)c3c2c1cc1[c-]c(-c2nc4ccccc4s2)c(=O)oc31.CC1(C)CCN2CCC(C)(C)c3c2c1cc1[c-]c(-c2nc4ccccc4s2)c(=O)oc31.CCCCNCCNCCCC.F[P-](F)(F)(F)(F)F.[Ir+3] [C545T-BEDA, Bis[10-(benzo[d]thiazol-2-yl)-1,1,7,7-tetramethyl-2,3,6,7-tetrahydro-1H-pyrano [2,3-f]pyrido[3,2,1-ij]quinolin-11(5H)-one-κN, κC^4]N^1,N^2-dibutylethane-1,2-diamine iridium(III) hexafluorophosphate] | 499 nm | 622 nm | 90,600 dm^3mol^−1cm^−1 | 53.7 μs | 0.40 | remarkable increases in the phosphorescence intensity | exhibit higher phosphorescence intensities |  |  |  |  | 
CC1(C)CCN2CCC(C)(C)c3c2c1cc1[c-]c(-c2nc4ccccc4s2)c(=O)oc31.CC1(C)CCN2CCC(C)(C)c3c2c1cc1[c-]c(-c2nc4ccccc4s2)c(=O)oc31.CNCCNC.F[P-](F)(F)(F)(F)F.[Ir+3] [C545T-MEDA, Bis[10-(benzo[d]thiazol-2-yl)-1,1,7,7-tetramethyl-2,3,6,7-tetrahydro-1H-pyrano [2,3-f]pyrido[3,2,1-ij]quinolin-11(5H)-one-κN, κC^4]N^1,N^2-dimethylethane-1,2-diamine iridium(III) hexafluorophosphate] | 496 nm | 621 nm | 77,000 dm^3mol^−1cm^−1 | 46.5 μs | 0.36 |  |  |  |  |  |  | 
